Earlier results in patent US9029312B2, “Compositions for cleaning applicators for hair removal compositions” (priority 2012, dated 2015).

Tests used:
[1] = Bhargava & Leonard 1996

Oc1cc(Cl)ccc1Oc1ccc(Cl)cc1Cl [Triclosan, 5-Chloro-2-(2,4-dichlorophenoxy) phenol]
carcinogenic, mutagenic or teratogenic effects [1]: not found to have any carcinogenic, mutagenic or teratogenic effects | toxicity to humans and other mammals [1]: relatively non-toxic | solubility in mineral oil: relatively high solubility in mineral oil
